Values after ≈ are worked out from the molar mass of the structure shown.
Legend:
Candida albicans [1] = assay: Antifungal activity against Candida albicans SC5314 assessed as reduction in Lanosterol at 0.05 ug/ml measured after 18 hrs incubation by gas chromatography-mass spectrometry (GCMS) analysis; assay type: functional; design: scale not given: the % may be the effect or the level left; settings: dose 0.05 µg/ml
Candida albicans [2] = assay: Antifungal activity against Candida albicans CPCC 400616 assessed as inhibition of visible growth; assay type: functional
Cryptococcus neoformans [3] = assay: Antifungal activity against Cryptococcus neoformans CGMCC 2.3161 assessed as reduction in Obtusifoliol at 0.0125 ug/ml measured after 18 hrs incubation by gas chromatography-mass spectrometry (GCMS) analysis; assay type: functional; design: scale not given: the % may be the effect or the level left; settings: dose 0.0125 µg/ml
Cryptococcus neoformans [4] = assay: Antifungal activity against Cryptococcus neoformans CGMCC 2.3161 assessed as inhibition of visible growth; assay type: functional
Candida tropicalis = assay: Antifungal activity against Candida tropicalis CGMCC 2.3739 assessed as inhibition of visible growth; assay type: functional
[5] = AUC (0 to infinity) in Sprague-Dawley rat at 3 mg/kg, iv by LC-MS/MS analysis; assay type: ADME, organism-based; settings: in vivo

For `[2H]C([2H])([2H])N(Cc1ccc(-c2ccc(OC(F)(F)F)cc2)cc1)[C@H](C)[C@](O)(Cn1cncn1)c1ccc(F)cc1F`, which Activity (Candida albicans [1]) is on record?
Its Activity is 21.92%.

And the MIC80 (Candida albicans [2])?
Its MIC80 is 6 ng/mL (≈ 0.0112 µM).

And the Activity (Cryptococcus neoformans [3])?
Its Activity is 5.76%.

What about the MIC80 (Cryptococcus neoformans [4]) of the same compound?
The MIC80 was 12 ng/mL (≈ 0.0224 µM).

What about the MIC80 (Candida tropicalis) of the same compound?
The MIC80 was 6 ng/mL (≈ 0.0112 µM).

And the AUC [5]?
The AUC was 2286 ng·h/mL.

Reference: ChEMBL document CHEMBL6182926, “Design, Synthesis, and Biological Activity Evaluation of Deuterated Diphenyl Azole Alcohol-Based CYP51 Inhibitors” (J Med Chem, 2025)
